# Reference: publication PMC10872706 (The FEBS journal, 2023)
# “And” between values parts separate entries of the source, which are not always exact repeats. Equal entries are not always repeated. Where two headings read alike, the source gives them in different places.
# Assays:
# E. coli PdxI [1] = target: T1, E. coli PdxI (Escherichia coli, UniProt P25906); assay: Differential scanning fluorimetry; assay type: binding; conditions: for effect on thermal stability (Tm) when added alone: vitamers 100 μM, NAD+ or NADH 400 μM; for effect on thermal stability (Tm) when added alone / Kd: 2 μM PdxI; for increase of thermal stability: increasing concentrations of dinucleotide; for Kd: read-out: apparent dissociation constant, from changes of Tm as a function of NADP(H) concentration, 20 mM KPi pH 7.3; for further change of Tm on adding vitamer to pre-incubated PdxI and dinucleotide: 200 μM vitamer, PL added to PdxI-NAD(P)+, PN to PdxI-NAD(P)H
# T1 sequence (P25906 1-286): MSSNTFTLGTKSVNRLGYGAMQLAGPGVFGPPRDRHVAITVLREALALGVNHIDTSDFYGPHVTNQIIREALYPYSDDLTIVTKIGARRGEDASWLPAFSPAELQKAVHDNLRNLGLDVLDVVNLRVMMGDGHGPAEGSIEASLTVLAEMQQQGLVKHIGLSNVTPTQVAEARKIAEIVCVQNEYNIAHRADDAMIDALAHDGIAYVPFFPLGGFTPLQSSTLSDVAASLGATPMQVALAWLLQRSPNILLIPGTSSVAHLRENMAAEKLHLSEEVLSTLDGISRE
# E. coli PdxI [2] = target: T1, E. coli PdxI; assay: Spectrophotometric kinetic characterisation of PdxI; conditions: for type of product inhibition with respect to NADPH: NADPH varied, PL fixed at 38 μM
# E. coli PdxI [3] = target: T1, E. coli PdxI; assay: Reactions catalysed by PdxI, discontinuous assay with HPLC quantification; assay type: biochemical
# E. coli PdxI [4] = target: T1, E. coli PdxI; conditions: in vitro; cited from earlier work
# E. coli PdxI [5] = target: T1, E. coli PdxI; assay: Isothermal titration calorimetry; assay type: binding
# [6] = tested on: E. coli pdxK, pdxY, pdxKY knock out strains; assay type: cell-based, Escherichia coli; conditions: M9 medium, all these strains
# [7] = tested on: E. coli BW25113 wild type; assay type: cell-based, Escherichia coli
# [8] = tested on: E. coli BW25113 pdxI knock out strain; assay type: cell-based, Escherichia coli; conditions: for beneficial effect of low concentrations on growth: low concentrations in M9 medium
# PdxK = conditions: cited from earlier work
# [9] = tested on: E. coli BW25113 wild type; assay: B6 vitamer levels in cell extracts by HPLC, wild type; assay type: cell-based, Escherichia coli
# E. coli BW25113 cells = assay: RT-qPCR relative expression of vitamin B6 metabolism genes; assay type: cell-based, Escherichia coli; conditions: 0.1 mM vitamer in M9, relative to M9 = 100%; for Expression level of pdxI: (*) P < 0.01
# [10] = tested on: E. coli BW25113 pdxI knock out strain; assay type: cell-based, Escherichia coli
# [11] = ligand alone titrated into PdxI
# [12] = ligand alone titrated into PdxI (binary complex)
# [13] = ligand alone titrated into PdxI, 20°C, pH 7.4, NB = non-binding ligand
# [14] = PL added to pre-incubated mixture of PdxI and NADPH (ternary complex)
# [15] = medium supplemented with 1.5 mM PL
# [16] = medium supplemented with 0.1 mM PN
smiles,measurement,setting,value
"Cc1ncc(COP(=O)(O)O)c(C=O)c1O [PLP, Pyridoxal 5’-phosphate]",effect on thermal stability (Tm) when added alone,E. coli PdxI [1],no effect
same,Km,E. coli PdxI [2]; PLP reduction to PNP by NADPH,> 1200 µM
same,conversion of PLP into PNP,"E. coli PdxI [3]; 200 μM PLP, 400 μM NADPH, 0.2 μM PdxI",apparently complete
same,activity of PdxI with the substrate,E. coli PdxI [4],no detectable activity
"NC(=O)c1ccc[n+]([C@@H]2O[C@H](COP(=O)([O-])OP(=O)(O)OC[C@H]3O[C@@H](n4cnc5c(N)ncnc54)[C@H](OP(=O)(O)O)[C@@H]3O)[C@@H](O)[C@H]2O)c1 [NADP^+, oxidised nicotinamide adenine dinucleotide phosphate]",increase of thermal stability,E. coli PdxI [1],up to 9 °C
same,Kd,E. coli PdxI [1],856 ± 490 µM
same,type of product inhibition with respect to NADPH,E. coli PdxI [2],competitive inhibitor
same,N value,E. coli PdxI [5]; [11],0.99 ± 0.09
same,ΔH,E. coli PdxI [5]; [12],-5.16 ± 0.134 kcal/mol
same,ΔS,E. coli PdxI [5]; [12],−54 ± 2 J mol^−1/deg
same,Kd,E. coli PdxI [5]; [13],46.3 ± 1.97 µM
"Cc1ncc(CO)c(CN)c1O [PM, pyridoxamine]",conversion of PM to PL,E. coli PdxI [3]; NADP+ as electron acceptor,could not be detected
same,activity of PdxI with the substrate,E. coli PdxI [4],no detectable activity
NC(=O)c1ccc[n+]([C@@H]2O[C@H](COP(=O)([O-])OP(=O)(O)OC[C@H]3O[C@@H](n4cnc5c(N)ncnc54)[C@H](O)[C@@H]3O)[C@@H](O)[C@H]2O)c1 [NAD^+],effect on thermal stability (Tm) when added alone,E. coli PdxI [1],no effect
"Cc1ncc(CO)c(C=O)c1O [PL, pyridoxal]",further change of Tm on adding vitamer to pre-incubated PdxI and dinucleotide,E. coli PdxI [1],did not further increase Tm
same,effect on thermal stability (Tm) when added alone,E. coli PdxI [1],no effect
same,concentration at which PL toxicity is observed,[6],≥ 1400 µM
same,effect on growth,[7]; up to 0.1 mM in M9 medium,beneficial
same,effect on growth,[7]; up to 1 mM in M9 medium,abolish this beneficial effect
same,Kd,E. coli PdxI [5],0.024 ± 0.01 µM
same,N value,E. coli PdxI [5]; PL added to pre-incubated 1:1 mixture of PdxI and NADPH,0.61 and 0.61 ± 0.02
same,ΔH,E. coli PdxI [5]; [14],-0.884 ± 0.0359 kcal/mol
same,ΔS,E. coli PdxI [5]; [14],22 ± 1 J mol^−1/deg
same,effect on bacterial growth,[8]; 1 mM in M9 medium,toxicity
same,effect on bacterial growth,[8]; 2 mM in M9 medium,nearly arrested
same,beneficial effect of low concentrations on growth,[8],not visible
same,kcat of PdxK,PdxK; PL as substrate,2.3 s⁻¹
same,Km,PdxK; read-out: KM for PL of PdxK,100 µM
same,increase of PL levels,[9]; [15],about 800 fold
same,PL converted into PN at equilibrium,"E. coli PdxI [3]; 200 μM PL, 400 μM NADH, 0.2 μM PdxI",98.3 ± 2.6%
same,PL converted into PN at equilibrium,"E. coli PdxI [3]; 200 μM PL, 400 μM NADPH, 0.2 μM PdxI",96 ± 1.7%
same,Expression level of pdxB,E. coli BW25113 cells,97%
same,Expression level of pdxH,E. coli BW25113 cells,110%
same,Expression level of pdxJ,E. coli BW25113 cells,86%
same,Expression level of pdxK,E. coli BW25113 cells,105%
same,Expression level of pdxY,E. coli BW25113 cells,118%
same,Expression level of ybhA,E. coli BW25113 cells,110%
same,Expression level of pdxI,E. coli BW25113 cells,134% (*)
same,increase of PL levels,[10]; [15],about 3400 fold
"NC(=O)C1=CN([C@@H]2O[C@H](COP(=O)(O)OP(=O)(O)OC[C@H]3O[C@@H](n4cnc5c(N)ncnc54)[C@H](OP(=O)(O)O)[C@@H]3O)[C@@H](O)[C@H]2O)C=CC1 [NADPH, reduced nicotinamide adenine dinucleotide phosphate]",increase of thermal stability,E. coli PdxI [1],up to 9 °C
same,Kd,E. coli PdxI [1],81 ± 16 µM
same,Km,"E. coli PdxI [2]; PL reduction to PN by NADPH, 37 °C, 20 mM KPi pH 7.3, 0.05 μM PdxI",12 ± 4 µM
same,N value,E. coli PdxI [5]; [11],1.13 ± 0.05
same,ΔH,E. coli PdxI [5]; [12],-2.964 ± 0.0335 kcal/mol
same,ΔS,E. coli PdxI [5]; [12],−18 ± 1 J mol^−1/deg
same,Kd,E. coli PdxI [5]; [13],4.2 ± 0.35 µM
"Cc1ncc(CO)c(CO)c1O [PN, pyridoxine]",further change of Tm on adding vitamer to pre-incubated PdxI and dinucleotide,E. coli PdxI [1],did not further increase Tm
same,effect on thermal stability (Tm) when added alone,E. coli PdxI [1],no effect
same,effect on growth,[7]; up to 1 mM in M9 medium,beneficial effect
same,type of product inhibition with respect to NADPH,E. coli PdxI [2],mixed inhibition
same,beneficial effect of low concentrations on growth,[8],not visible
same,rise of PLP levels,[9]; [16],1.5 fold
same,PN converted to PL (reverse reaction),"E. coli PdxI [3]; 200 μM PN, 400 μM NADP+, 1 μM PdxI",5 ± 1.3%
same,Expression level of pdxB,E. coli BW25113 cells,103%
same,Expression level of pdxH,E. coli BW25113 cells,95%
same,Expression level of pdxJ,E. coli BW25113 cells,88%
same,Expression level of pdxK,E. coli BW25113 cells,107%
same,Expression level of pdxY,E. coli BW25113 cells,115%
same,Expression level of ybhA,E. coli BW25113 cells,108%
same,Expression level of pdxI,E. coli BW25113 cells,98%
same,rise of PLP levels,[10]; [16],1.8 fold
NC(=O)C1=CN([C@@H]2O[C@H](COP(=O)(O)OP(=O)(O)OC[C@H]3O[C@@H](n4cnc5c(N)ncnc54)[C@H](O)[C@@H]3O)[C@@H](O)[C@H]2O)C=CC1 [NADH],effect on thermal stability (Tm) when added alone,E. coli PdxI [1],no effect
same,reaction rate with PL and NADH relative to that with NADPH,"E. coli PdxI [3]; 200 μM PL, 400 μM dinucleotide",10 times slower
